From ChEMBL document CHEMBL1177794, “Broad spectrum alkynyl inhibitors of T315I Bcr-Abl” (Bioorg Med Chem Lett, 2010)

Tests used:
[1] = tested on: Epidermal growth factor receptor (Homo sapiens), P00533 [L858R]; assay: Inhibition of EGFR L858R mutant at 10 uM; values are per cent of control
[2] = target: LIM domain kinase 1 (Homo sapiens) (UniProt P53667); assay: Inhibition of LIMK1 at 10 uM; settings: values are per cent of control
[3] = target: Phosphatidylinositol 4,5-bisphosphate 3-kinase catalytic subunit beta isoform (Homo sapiens) (UniProt P42338); assay: Inhibition of PIK3CB at 10 uM
[4] = target: Casein kinase I isoform gamma-3 (Homo sapiens) (UniProt Q9Y6M4); assay: Inhibition of CSNK1G3 at 10 uM; values are per cent of control
[5] = target: Serine/threonine-protein kinase MRCK alpha (Homo sapiens) (UniProt Q5VT25); assay: Inhibition of MRCKA at 10 uM
[6] = target: Cyclin-dependent kinase 4/cyclin D1 (Homo sapiens) (UniProt P11802+P24385); assay: Inhibition of CDK4/cyclin D1 at 10 uM; values are per cent of control
[7] = target: Serine/threonine-protein kinase Sgk3 (Homo sapiens) (UniProt Q96BR1); assay: Inhibition of SGK3 at 10 uM
[8] = target: Non-receptor tyrosine-protein kinase TYK2 (Homo sapiens) (UniProt P29597); assay: Inhibition of TYK2 JH1 catalytic domain at 10 uM; settings: values are per cent of control
[9] = target: Tyrosine-protein kinase Fes/Fps (Homo sapiens) (UniProt P07332); assay: Inhibition of FES at 10 uM; settings: values are per cent of control
[10] = target: Megakaryocyte-associated tyrosine-protein kinase (Homo sapiens) (UniProt P42679); assay: Inhibition of CTK at 10 uM; settings: values are per cent of control
[11] = target: Serine/threonine-protein kinase N1 (Homo sapiens) (UniProt Q16512); assay: Inhibition of PKN1 at 10 uM
[12] = target: Rho-associated protein kinase 1 (Homo sapiens) (UniProt Q13464); assay: Inhibition of ROCK1 at 10 uM
[13] = tested on: Tyrosine-protein kinase ABL1 (Homo sapiens), P00519 [F317L]; assay: Inhibition of non phosphorylated ABL1 F317L mutant at 10 uM; settings: values are per cent of control
[14] = target: Cyclin-dependent kinase 14 (Homo sapiens) (UniProt O94921); assay: Inhibition of PFTK1 at 10 uM; settings: values are per cent of control
[15] = target: Serine/threonine-protein kinase TBK1 (Homo sapiens) (UniProt Q9UHD2); assay: Inhibition of TBK1 at 10 uM
[16] = target: Mitogen-activated protein kinase 3 (Homo sapiens) (UniProt P27361); assay: Inhibition of ERK1 at 10 uM; settings: values are per cent of control
[17] = target: Calcium/calmodulin-dependent protein kinase type IV (Homo sapiens) (UniProt Q16566); assay: Inhibition of CAMK4 at 10 uM; settings: values are per cent of control
[18] = target: Cyclin-dependent kinase 2 homolog (Plasmodium falciparum (isolate K1 / Thailand)) (UniProt Q07785); assay: Inhibition of Plasmodium falciparum PFPK5 at 10 uM
[19] = target: Ephrin type-A receptor 3 (Homo sapiens) (UniProt P29320); assay: Inhibition of EPHA3 at 10 uM; settings: values are per cent of control
[20] = target: Cyclin-dependent kinase 9 (Homo sapiens) (UniProt P50750); assay: Inhibition of CDK9 at 10 uM; values are per cent of control
[21] = target: Tyrosine-protein kinase TXK (Homo sapiens) (UniProt P42681); assay: Inhibition of TXK at 10 uM; settings: values are per cent of control
[22] = target: 3-phosphoinositide-dependent protein kinase 1 (Homo sapiens) (UniProt O15530); assay: Inhibition of PDPK1 at 10 uM
[23] = tested on: Receptor-type tyrosine-protein kinase FLT3 (Homo sapiens), P36888 [K663Q]; assay: Inhibition of FLT3 K663Q mutant at 10 uM; settings: values are per cent of control
[24] = target: Phosphatidylinositol 4-phosphate 5-kinase type-1 gamma (Homo sapiens) (UniProt O60331); assay: Inhibition of PIP5K1C at 10 uM
[25] = target: Serine/threonine-protein kinase 35 (Homo sapiens) (UniProt Q8TDR2); assay: Inhibition of STK35 at 10 uM
[26] = target: Ephrin type-A receptor 7 (Homo sapiens) (UniProt Q15375); assay: Inhibition of EPHA7 at 10 uM; settings: values are per cent of control
[27] = target: Serine/threonine-protein kinase pim-2 (Homo sapiens) (UniProt Q9P1W9); assay: Inhibition of PIM2 at 10 uM
[28] = target: Dual specificity mitogen-activated protein kinase kinase 6 (Homo sapiens) (UniProt P52564); assay: Inhibition of MEK6 at 10 uM; settings: values are per cent of control
[29] = target: Interleukin-1 receptor-associated kinase 3 (Homo sapiens) (UniProt Q9Y616); assay: Inhibition of IRAK3 at 10 uM; settings: values are per cent of control
[30] = target: Serine/threonine-protein kinase Nek9 (Homo sapiens) (UniProt Q8TD19); assay: Inhibition of NEK9 at 10 uM
[31] = target: Tyrosine-protein kinase receptor UFO (Homo sapiens) (UniProt P30530); assay: Inhibition of AXL at 10 uM; settings: values are per cent of control
[32] = tested on: Phosphatidylinositol 4,5-bisphosphate 3-kinase catalytic subunit alpha isoform (Homo sapiens), P42336 [Q546K]; assay: Inhibition of PIK3CA Q546K mutant at 10 uM
[33] = target: Protein-tyrosine kinase 2-beta (Homo sapiens) (UniProt Q14289); assay: Inhibition of PYK2 at 10 uM; settings: values are per cent of control
[34] = target: Mitogen-activated protein kinase 12 (Homo sapiens) (UniProt P53778); assay: Inhibition of p38-gamma at 10 uM; values are per cent of control
[35] = target: Non-receptor tyrosine-protein kinase TNK1 (Homo sapiens) (UniProt Q13470); assay: Inhibition of TNK1 at 10 uM; settings: values are per cent of control
[36] = tested on: Phosphatidylinositol 4,5-bisphosphate 3-kinase catalytic subunit alpha isoform (Homo sapiens), P42336 [I800L]; assay: Inhibition of PIK3CA I800L mutant at 10 uM
[37] = target: Protein kinase C eta type (Homo sapiens) (UniProt P24723); assay: Inhibition of PRKCH at 10 uM
[38] = target: Macrophage colony-stimulating factor 1 receptor (Homo sapiens) (UniProt P07333); assay: Inhibition of CSF1R at 10 uM; settings: values are per cent of control
[39] = target: Mitogen-activated protein kinase 8 (Homo sapiens) (UniProt P45983); assay: Inhibition of JNK1 at 10 uM; values are per cent of control
[40] = target: Mitogen-activated protein kinase kinase kinase 3 (Homo sapiens) (UniProt Q99759); assay: Inhibition of MAP3K3 at 10 uM; settings: values are per cent of control
[41] = tested on: Receptor-type tyrosine-protein kinase FLT3 (Homo sapiens), P36888 [R834Q]; assay: Inhibition of FLT3 R834Q mutant at 10 uM; settings: values are per cent of control
[42] = target: Activin receptor type-1-like (Homo sapiens) (UniProt P37023); assay: Inhibition of ACVRL1 at 10 uM; settings: values are per cent of control
[43] = target: Vascular endothelial growth factor receptor 3 (Homo sapiens) (UniProt P35916); assay: Inhibition of FLT4 at 10 uM; settings: values are per cent of control
Vascular endothelial growth factor receptor 3 (Homo sapiens), sequence (P35916 whole entry): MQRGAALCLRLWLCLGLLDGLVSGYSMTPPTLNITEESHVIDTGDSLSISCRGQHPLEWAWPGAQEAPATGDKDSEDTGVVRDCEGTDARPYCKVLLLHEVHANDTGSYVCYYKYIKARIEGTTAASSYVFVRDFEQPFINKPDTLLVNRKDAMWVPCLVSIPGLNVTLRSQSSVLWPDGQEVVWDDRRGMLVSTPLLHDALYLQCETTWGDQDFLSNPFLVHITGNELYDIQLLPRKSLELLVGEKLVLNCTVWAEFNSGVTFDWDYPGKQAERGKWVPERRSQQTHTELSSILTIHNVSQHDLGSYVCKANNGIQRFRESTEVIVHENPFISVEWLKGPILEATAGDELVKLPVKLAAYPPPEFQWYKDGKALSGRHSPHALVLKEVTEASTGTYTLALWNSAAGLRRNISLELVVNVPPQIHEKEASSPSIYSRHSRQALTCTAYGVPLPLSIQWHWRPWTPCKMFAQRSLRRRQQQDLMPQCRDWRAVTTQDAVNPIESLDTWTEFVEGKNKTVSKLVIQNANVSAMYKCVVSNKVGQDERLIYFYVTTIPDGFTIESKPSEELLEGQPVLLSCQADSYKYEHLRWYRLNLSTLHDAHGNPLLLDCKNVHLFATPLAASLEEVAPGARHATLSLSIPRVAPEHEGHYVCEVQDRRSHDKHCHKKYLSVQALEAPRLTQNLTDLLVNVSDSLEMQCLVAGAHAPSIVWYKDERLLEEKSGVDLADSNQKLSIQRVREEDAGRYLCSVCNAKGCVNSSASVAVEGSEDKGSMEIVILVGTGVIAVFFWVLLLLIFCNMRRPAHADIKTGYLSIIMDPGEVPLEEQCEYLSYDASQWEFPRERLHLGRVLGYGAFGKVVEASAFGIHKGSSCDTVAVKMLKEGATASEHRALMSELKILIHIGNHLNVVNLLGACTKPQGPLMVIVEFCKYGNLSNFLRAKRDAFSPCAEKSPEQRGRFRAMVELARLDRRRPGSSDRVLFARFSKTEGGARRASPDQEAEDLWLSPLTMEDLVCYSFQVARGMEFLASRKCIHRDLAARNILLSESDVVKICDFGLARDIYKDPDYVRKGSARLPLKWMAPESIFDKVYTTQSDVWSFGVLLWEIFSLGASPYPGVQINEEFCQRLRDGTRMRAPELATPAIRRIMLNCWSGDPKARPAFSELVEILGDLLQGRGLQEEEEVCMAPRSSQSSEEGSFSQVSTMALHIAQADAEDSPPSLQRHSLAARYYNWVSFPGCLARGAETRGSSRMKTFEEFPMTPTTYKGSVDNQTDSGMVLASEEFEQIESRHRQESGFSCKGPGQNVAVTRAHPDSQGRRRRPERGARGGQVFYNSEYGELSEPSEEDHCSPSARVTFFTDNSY

Phosphatidylinositol 4,5-bisphosphate 3-kinase catalytic subunit alpha isoform (Homo sapiens), P42336 [Q546K], sequence (P42336 whole entry Q546K, canonical isoform): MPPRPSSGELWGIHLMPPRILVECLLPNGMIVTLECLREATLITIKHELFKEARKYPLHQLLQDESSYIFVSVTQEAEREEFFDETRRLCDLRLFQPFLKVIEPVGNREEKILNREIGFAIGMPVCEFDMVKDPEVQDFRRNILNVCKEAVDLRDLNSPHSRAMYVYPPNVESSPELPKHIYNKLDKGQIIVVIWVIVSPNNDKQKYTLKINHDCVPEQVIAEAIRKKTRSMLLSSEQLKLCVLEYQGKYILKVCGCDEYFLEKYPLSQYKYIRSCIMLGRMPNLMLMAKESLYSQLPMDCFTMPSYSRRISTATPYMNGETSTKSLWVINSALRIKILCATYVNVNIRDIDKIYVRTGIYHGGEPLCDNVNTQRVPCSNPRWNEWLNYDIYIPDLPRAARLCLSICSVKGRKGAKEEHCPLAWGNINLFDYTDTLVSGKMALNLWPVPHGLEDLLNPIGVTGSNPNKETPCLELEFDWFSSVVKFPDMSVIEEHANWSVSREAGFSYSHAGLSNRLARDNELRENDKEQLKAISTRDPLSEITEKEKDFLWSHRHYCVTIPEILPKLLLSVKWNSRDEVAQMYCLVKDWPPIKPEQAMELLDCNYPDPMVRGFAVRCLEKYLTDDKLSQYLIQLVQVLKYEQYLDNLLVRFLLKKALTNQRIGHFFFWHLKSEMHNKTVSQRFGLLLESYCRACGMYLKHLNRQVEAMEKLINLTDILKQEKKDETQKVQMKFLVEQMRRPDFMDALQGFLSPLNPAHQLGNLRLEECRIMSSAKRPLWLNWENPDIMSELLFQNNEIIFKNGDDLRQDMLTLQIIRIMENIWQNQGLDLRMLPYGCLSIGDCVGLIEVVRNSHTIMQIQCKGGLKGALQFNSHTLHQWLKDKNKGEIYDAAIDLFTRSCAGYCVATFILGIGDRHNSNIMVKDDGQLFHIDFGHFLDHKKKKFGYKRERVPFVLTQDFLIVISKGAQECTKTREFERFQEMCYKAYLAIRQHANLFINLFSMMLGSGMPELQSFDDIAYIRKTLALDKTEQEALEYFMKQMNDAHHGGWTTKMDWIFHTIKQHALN
Serine/threonine-protein kinase Nek9 (Homo sapiens), sequence (Q8TD19 whole entry): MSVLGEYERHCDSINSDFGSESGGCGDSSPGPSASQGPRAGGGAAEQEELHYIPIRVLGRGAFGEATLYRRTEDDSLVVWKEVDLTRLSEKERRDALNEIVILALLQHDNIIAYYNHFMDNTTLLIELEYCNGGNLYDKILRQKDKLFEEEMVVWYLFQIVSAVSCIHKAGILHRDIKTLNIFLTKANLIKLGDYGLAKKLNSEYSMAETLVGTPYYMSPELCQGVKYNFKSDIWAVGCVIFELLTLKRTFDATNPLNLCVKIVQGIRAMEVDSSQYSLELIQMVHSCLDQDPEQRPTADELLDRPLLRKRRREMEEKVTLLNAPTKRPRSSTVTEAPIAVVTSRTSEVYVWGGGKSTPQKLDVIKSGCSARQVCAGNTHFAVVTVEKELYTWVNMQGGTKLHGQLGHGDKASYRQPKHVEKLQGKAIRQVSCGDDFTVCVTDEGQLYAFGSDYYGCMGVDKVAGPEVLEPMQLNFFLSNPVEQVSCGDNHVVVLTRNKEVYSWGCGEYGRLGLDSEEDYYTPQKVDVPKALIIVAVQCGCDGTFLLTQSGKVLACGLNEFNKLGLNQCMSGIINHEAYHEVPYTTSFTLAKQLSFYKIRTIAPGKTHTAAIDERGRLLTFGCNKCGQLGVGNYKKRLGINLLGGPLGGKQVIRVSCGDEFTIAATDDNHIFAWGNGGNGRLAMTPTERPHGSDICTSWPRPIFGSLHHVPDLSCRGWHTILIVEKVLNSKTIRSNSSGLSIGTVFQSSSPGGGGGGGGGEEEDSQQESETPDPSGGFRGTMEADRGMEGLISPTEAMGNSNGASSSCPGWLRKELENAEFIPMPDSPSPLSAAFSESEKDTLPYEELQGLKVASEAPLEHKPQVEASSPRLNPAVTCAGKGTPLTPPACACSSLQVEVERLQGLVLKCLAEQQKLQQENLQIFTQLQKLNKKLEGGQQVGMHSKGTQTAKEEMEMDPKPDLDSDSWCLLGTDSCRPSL
Macrophage colony-stimulating factor 1 receptor (Homo sapiens), sequence (P07333 whole entry): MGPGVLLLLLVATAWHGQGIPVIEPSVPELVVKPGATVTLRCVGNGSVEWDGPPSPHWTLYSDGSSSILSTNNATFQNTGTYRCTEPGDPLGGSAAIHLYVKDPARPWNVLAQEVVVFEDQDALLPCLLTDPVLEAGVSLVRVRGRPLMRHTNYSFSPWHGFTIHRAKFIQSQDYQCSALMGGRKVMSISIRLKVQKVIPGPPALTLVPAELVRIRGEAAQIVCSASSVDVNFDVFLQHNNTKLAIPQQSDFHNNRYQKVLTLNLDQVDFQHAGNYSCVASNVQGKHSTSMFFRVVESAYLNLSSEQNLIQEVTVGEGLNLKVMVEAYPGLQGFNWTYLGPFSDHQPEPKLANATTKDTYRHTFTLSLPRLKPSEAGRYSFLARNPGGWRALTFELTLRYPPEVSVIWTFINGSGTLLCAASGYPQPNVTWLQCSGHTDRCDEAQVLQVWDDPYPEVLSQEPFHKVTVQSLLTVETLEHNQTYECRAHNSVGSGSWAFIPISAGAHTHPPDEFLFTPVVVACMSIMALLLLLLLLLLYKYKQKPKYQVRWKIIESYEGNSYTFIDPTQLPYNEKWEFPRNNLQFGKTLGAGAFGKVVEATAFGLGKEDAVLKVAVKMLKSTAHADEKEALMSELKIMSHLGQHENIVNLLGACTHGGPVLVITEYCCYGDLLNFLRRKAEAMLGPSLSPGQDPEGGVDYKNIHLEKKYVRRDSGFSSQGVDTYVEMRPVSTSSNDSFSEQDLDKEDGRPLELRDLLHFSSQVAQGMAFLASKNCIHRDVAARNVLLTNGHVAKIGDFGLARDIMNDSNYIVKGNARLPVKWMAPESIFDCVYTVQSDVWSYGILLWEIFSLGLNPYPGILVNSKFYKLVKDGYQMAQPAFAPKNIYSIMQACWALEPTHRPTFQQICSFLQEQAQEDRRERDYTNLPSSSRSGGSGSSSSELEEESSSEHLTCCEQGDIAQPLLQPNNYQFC
Serine/threonine-protein kinase pim-2 (Homo sapiens), sequence (Q9P1W9 whole entry, looked up): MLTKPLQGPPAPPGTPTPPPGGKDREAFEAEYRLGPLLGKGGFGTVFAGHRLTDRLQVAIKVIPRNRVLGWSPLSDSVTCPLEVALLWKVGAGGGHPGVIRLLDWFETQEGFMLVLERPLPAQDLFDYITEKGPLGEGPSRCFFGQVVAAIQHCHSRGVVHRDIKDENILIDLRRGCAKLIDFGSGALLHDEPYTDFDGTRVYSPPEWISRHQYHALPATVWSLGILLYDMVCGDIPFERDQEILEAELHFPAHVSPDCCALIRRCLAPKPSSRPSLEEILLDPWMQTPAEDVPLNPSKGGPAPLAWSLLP
Cyclin-dependent kinase 2 homolog (Plasmodium falciparum (isolate K1 / Thailand)), sequence (Q07785 whole entry): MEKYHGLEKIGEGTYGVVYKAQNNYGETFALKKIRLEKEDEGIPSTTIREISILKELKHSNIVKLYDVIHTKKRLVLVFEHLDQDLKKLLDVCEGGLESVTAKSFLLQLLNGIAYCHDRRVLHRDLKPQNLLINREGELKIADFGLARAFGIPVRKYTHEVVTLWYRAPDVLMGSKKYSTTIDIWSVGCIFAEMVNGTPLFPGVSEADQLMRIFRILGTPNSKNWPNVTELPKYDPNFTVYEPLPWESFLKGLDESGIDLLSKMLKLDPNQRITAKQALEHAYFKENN

Compound: CCN1CCN(Cc2ccc(NC(=O)c3ccc(C)c(C#Cc4cnc5[nH]ccc5c4)c3)cc2C(F)(F)F)CC1
- level, % of control [1]: 0.25%
- residual binding, % of control [2]: 1.2%
- inhibition [3]: 85%
- level, % of control [4]: 22%
- inhibition [5]: 73%
- level, % of control [6]: 29%
- inhibition [7]: 11%
- residual binding, % of control [8]: 6.8%
- residual binding, % of control [9]: 0.1%
- residual binding, % of control [10]: 45%
- inhibition [11]: 28%
- inhibition [12]: 60%
- residual binding, % of control [13]: 0%
- residual binding, % of control [14]: 1.6%
- inhibition [15]: 84%
- residual binding, % of control [16]: 96%
- residual binding, % of control [17]: 100%
- inhibition [18]: 93%
- residual binding, % of control [19]: 0.75%
- level, % of control [20]: 31%
- residual binding, % of control [21]: 0.25%
- inhibition [22]: 60%
- residual binding, % of control [23]: 0%
- inhibition [24]: 100%
- inhibition [25]: 0.8%
- residual binding, % of control [26]: 0.1%
- inhibition [27]: 100%
- residual binding, % of control [28]: 88%
- residual binding, % of control [29]: 100%
- inhibition [30]: 12%
- residual binding, % of control [31]: 0.1%
- inhibition [32]: 100%
- residual binding, % of control [33]: 0.15%
- % of control [34]: 5.7%
- residual binding, % of control [35]: 0.8%
- inhibition [36]: 100%
- inhibition [37]: 79%
- residual binding, % of control [38]: 0%
- level, % of control [39]: 0.45%
- residual binding, % of control [40]: 1.4%
- residual binding, % of control [41]: 7.2%
- residual binding, % of control [42]: 100%
- residual binding, % of control [43]: 0.1%

Compound: CCN1CCN(Cc2ccc(NC(=O)c3ccc(C)c(C#Cc4cccnc4)c3)cc2C(F)(F)F)CC1
- level, % of control [1]: 4%
- residual binding, % of control [2]: 3%
- inhibition [3]: 100%
- level, % of control [4]: 85%
- inhibition [5]: 87%
- level, % of control [6]: 21%
- inhibition [7]: 6.2%
- residual binding, % of control [8]: 4.2%
- residual binding, % of control [9]: 0.75%
- residual binding, % of control [10]: 35%
- inhibition [11]: 85%
- inhibition [12]: 43%
- residual binding, % of control [13]: 0%
- residual binding, % of control [14]: 0.85%
- inhibition [15]: 100%
- residual binding, % of control [16]: 100%
- residual binding, % of control [17]: 100%
- inhibition [18]: 89%
- residual binding, % of control [19]: 0.85%
- level, % of control [20]: 52%
- residual binding, % of control [21]: 0.3%
- inhibition [22]: 84%
- residual binding, % of control [23]: 0%
- inhibition [24]: 90%
- inhibition [25]: 1.6%
- residual binding, % of control [26]: 0.55%
- inhibition [27]: 100%
- residual binding, % of control [28]: 100%
- residual binding, % of control [29]: 100%
- inhibition [30]: 41%
- residual binding, % of control [31]: 2.9%
- inhibition [32]: 100%
- residual binding, % of control [33]: 0.4%
- % of control [34]: 2.7%
- residual binding, % of control [35]: 0%
- inhibition [36]: 72%
- inhibition [37]: 67%
- residual binding, % of control [38]: 0%
- level, % of control [39]: 0.55%
- residual binding, % of control [40]: 1.4%
- residual binding, % of control [41]: 4.2%
- residual binding, % of control [42]: 100%
- residual binding, % of control [43]: 0%
